Some results are limits rather than exact numbers.

Experiment [1] addresses T1, Serine/threonine-protein kinase 3 (Homo sapiens) (UniProt Q13188).
T1 sequence (whole entry): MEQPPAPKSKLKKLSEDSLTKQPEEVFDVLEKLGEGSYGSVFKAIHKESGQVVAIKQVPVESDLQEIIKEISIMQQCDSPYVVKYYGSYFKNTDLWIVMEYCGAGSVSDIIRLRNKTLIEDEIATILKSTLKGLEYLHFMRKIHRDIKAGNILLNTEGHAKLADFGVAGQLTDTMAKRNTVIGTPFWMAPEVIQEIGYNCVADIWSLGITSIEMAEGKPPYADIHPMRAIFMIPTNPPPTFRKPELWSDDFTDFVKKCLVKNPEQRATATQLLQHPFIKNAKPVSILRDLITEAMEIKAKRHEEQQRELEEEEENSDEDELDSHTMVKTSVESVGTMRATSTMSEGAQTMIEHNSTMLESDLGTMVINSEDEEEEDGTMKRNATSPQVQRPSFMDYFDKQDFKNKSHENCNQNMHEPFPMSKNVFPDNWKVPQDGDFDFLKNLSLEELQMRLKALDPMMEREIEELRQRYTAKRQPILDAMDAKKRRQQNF
Nature of the experiment: Competitive binding affinity to STK3 (unknown origin) at 10 uM in presence of ATP relative to control.

Experiment [2] deals with T2, Receptor-type tyrosine-protein kinase FLT3 (Homo sapiens), P36888 [D835H].
T2 sequence (whole entry): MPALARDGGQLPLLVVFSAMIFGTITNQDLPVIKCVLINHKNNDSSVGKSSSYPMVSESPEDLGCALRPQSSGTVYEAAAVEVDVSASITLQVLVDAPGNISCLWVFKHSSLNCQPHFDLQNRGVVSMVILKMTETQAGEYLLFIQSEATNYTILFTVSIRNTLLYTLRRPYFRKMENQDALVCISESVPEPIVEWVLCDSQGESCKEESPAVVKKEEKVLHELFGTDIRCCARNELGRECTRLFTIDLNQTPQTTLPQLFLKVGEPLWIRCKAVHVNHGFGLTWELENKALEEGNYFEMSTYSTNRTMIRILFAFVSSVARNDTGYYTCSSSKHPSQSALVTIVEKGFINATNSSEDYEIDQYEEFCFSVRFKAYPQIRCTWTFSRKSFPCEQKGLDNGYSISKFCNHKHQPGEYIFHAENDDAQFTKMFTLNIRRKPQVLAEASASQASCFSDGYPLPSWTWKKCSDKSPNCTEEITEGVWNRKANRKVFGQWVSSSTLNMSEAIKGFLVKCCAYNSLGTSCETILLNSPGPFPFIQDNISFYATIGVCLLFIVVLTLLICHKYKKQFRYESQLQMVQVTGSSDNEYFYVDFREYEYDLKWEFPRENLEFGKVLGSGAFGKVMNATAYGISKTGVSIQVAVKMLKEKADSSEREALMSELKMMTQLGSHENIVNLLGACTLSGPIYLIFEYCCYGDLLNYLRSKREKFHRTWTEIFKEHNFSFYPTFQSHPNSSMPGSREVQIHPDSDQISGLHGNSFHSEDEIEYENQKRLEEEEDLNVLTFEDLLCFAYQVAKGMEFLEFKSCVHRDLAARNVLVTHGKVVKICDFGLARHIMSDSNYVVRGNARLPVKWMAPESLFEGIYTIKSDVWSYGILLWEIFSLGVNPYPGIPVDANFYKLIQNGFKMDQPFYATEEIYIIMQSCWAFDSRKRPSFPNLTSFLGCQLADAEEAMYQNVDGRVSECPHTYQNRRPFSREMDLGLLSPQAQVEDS
Put plainly: Competitive binding affinity to FLT3 D835H mutant (unknown origin) at 10 uM in presence of ATP relative to control.

The target of experiment [3] is T3, cAMP-dependent protein kinase catalytic subunit PRKX (Homo sapiens) (UniProt P51817).
T3 sequence (whole entry): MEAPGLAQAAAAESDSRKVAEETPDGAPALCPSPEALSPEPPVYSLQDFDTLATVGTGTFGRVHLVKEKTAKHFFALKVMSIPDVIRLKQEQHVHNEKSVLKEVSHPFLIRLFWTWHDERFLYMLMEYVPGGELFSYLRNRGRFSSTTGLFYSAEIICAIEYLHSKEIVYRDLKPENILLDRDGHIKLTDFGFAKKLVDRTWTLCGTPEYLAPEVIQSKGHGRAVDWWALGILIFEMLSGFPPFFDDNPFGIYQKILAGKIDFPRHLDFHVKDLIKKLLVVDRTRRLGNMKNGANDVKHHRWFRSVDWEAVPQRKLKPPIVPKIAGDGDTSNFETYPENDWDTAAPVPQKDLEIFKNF
Nature of the experiment: Competitive binding affinity to PRKX (unknown origin) at 10 uM in presence of ATP relative to control.

In experiment [4] the target is T4, NUAK family SNF1-like kinase 1 (Homo sapiens) (UniProt O60285).
T4 sequence (whole entry): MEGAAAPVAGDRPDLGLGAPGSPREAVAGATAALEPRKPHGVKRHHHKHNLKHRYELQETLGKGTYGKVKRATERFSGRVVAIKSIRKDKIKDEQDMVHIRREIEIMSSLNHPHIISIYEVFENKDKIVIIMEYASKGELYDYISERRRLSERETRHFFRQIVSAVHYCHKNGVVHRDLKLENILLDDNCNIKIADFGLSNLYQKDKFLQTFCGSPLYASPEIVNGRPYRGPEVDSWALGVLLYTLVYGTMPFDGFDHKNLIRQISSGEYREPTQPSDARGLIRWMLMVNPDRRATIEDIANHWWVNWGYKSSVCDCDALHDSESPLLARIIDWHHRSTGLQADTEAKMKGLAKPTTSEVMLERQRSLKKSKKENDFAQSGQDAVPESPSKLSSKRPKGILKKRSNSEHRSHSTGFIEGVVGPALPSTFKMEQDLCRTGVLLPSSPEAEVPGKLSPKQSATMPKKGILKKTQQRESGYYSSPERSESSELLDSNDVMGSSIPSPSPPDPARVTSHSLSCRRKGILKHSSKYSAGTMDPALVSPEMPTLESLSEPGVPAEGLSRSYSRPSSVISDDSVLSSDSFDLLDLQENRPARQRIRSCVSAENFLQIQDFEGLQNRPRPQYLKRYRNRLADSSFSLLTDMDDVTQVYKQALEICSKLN
Nature of the experiment: Competitive binding affinity to ARK5 (unknown origin) at 10 uM in presence of ATP relative to control.

Consider `O[C@H]1CC[C@H](Nc2nccc(-c3n[nH]c4ccccc34)n2)CC1`, for which the values for the inhibition in experiment [1], in experiment [2] and in experiment [3] were 94%, 100% and less than 50%, respectively.
With `O[C@H]1CC[C@H](Nc2nccc(-n3ccc4ccccc43)n2)CC1`, the inhibition in experiment [2], in experiment [4] and in experiment [3] was less than 50% each time.
Consider `O[C@H]1CC[C@H](Nc2nccc(-n3ncc4ccccc43)n2)CC1`, for which the values for the inhibition in experiment [2], in experiment [4] and in experiment [3] were 100%, 74% and less than 50%, respectively.
The matching figures for `O[C@H]1CC[C@H](Nc2nccc(-n3nnc4ccccc43)n2)CC1`: 99%, 72% and less than 50%.
For the compound `O=C([C@H]1CC[C@H](Nc2nccc(-n3nnc4ccccc43)n2)CC1)N1CCOCC1`, the inhibition (in general, the change of the read-out against control, counted positive when it falls) in experiment [1] worked out at 86%.
On the same count and under the same terms, for `N[C@H]1CC[C@H](Nc2nccc(-n3nnc4ccccc43)n2)CC1` the value was 96%.

For the origin of these results see ChEMBL document CHEMBL2424622, “Development of amino-pyrimidine inhibitors of c-Jun N-terminal kinase (JNK): kinase profiling guided optimization of a 1,2,3-benzotriazole lead” (Bioorg Med Chem Lett, 2013).
